Tests used:
Assay in all cases: radiometric filter-binding kinase assay, Kinase HotSpot
Conditions in all cases: compound 0.5 µM; ATP 10 µM
TEK (human) = TEK (human) (UniProt Q02763)
EPHA1 (human) = EPHA1 (human) (UniProt P21709)
MAPK13 (human) = MAPK13 (human) (UniProt O15264)
MAP4K4 (human) = MAP4K4 (human) (UniProt O95819)
CAMK2B (human) = CAMK2B (human) (UniProt Q13554)
DCLK2 (human) = DCLK2 (human) (UniProt Q8N568)
MET (human) = MET (human) (UniProt P08581)
ADRBK2 (human) = ADRBK2 (human) (UniProt P35626)
STK4 (human) = STK4 (human) (UniProt Q13043)
MAP3K7 TAB1 (human) = MAP3K7 TAB1 (human) (UniProt O43318+Q15750)
ERBB2 (human) = ERBB2 (human) (UniProt P04626)
MAP3K9 (human) = MAP3K9 (human) (UniProt P80192)
MAP3K2 (human) = MAP3K2 (human) (UniProt Q9Y2U5)
NTRK3 (human) = NTRK3 (human) (UniProt Q16288)
PRKCB2 (human) = PRKCB2 (human) (UniProt P05771)
DSTYK (human) = DSTYK (human) (UniProt Q6XUX3)
PRKCG (human) = PRKCG (human) (UniProt P05129)
MARK1 (human) = MARK1 (human) (UniProt Q9P0L2)
STK39 (human) = STK39 (human) (UniProt Q9UEW8)
PRKD2 (human) = PRKD2 (human) (UniProt Q9BZL6)
MINK1 (human) = MINK1 (human) (UniProt Q8N4C8)
PAK1 (human) = PAK1 (human) (UniProt Q13153)
MAP3K11 (human) = MAP3K11 (human) (UniProt Q16584)
INSR (human) = INSR (human) (UniProt P06213)
STK17A (human) = STK17A (human) (UniProt Q9UEE5)
CLK2 (human) = CLK2 (human) (UniProt P49760)
NLK (human) = NLK (human) (UniProt Q9UBE8)
MUSK (human) = MUSK (human) (UniProt O15146)
CDK6 CCND1 (human) = CDK6 CCND1 (human) (UniProt Q00534+P24385)
STK11 (human) = STK11 (human) (UniProt Q15831)
SRC (human) = SRC (human) (UniProt P12931)
GRK5 (human) = GRK5 (human) (UniProt P34947)
WNK2 (human) = WNK2 (human) (UniProt Q9Y3S1)
NTRK2 (human) = NTRK2 (human) (UniProt Q16620)
RPS6KA5 KD2 (human) = RPS6KA5 KD2 (human) (UniProt O75582)
SRPK2 (human) = SRPK2 (human) (UniProt P78362)
DAPK2 (human) = DAPK2 (human) (UniProt Q9UIK4)
AKT3 (human) = AKT3 (human) (UniProt Q9Y243)
LCK (human) = LCK (human) (UniProt P06239)
MYLK (human) = MYLK (human) (UniProt Q15746)
IGF1R (human) = IGF1R (human) (UniProt P08069)

Chain of MUSK (human) (O15146 whole entry, looked up): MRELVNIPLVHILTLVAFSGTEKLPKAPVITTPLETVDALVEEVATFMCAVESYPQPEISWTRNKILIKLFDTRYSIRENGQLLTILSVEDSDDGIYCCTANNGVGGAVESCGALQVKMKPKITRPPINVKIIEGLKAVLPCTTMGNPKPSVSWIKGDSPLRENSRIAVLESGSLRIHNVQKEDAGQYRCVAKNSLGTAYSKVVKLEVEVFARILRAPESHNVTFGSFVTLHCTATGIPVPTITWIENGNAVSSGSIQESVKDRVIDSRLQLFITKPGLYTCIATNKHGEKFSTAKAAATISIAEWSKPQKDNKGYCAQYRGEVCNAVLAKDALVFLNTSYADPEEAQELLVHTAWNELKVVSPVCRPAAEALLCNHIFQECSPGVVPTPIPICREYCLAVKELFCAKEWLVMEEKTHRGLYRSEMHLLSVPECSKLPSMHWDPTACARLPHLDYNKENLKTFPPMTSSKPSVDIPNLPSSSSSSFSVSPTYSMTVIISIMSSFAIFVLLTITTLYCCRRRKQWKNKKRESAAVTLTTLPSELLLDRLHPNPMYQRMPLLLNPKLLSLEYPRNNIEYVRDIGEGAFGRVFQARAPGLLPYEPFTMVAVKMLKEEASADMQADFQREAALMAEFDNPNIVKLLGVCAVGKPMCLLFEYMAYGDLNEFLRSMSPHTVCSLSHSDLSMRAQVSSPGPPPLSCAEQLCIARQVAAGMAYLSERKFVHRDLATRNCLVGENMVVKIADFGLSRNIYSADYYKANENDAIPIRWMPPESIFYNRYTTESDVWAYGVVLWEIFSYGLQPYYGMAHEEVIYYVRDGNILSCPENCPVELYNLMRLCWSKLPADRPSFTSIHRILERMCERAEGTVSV
Chain of GRK5 (human) (P34947 whole entry, looked up): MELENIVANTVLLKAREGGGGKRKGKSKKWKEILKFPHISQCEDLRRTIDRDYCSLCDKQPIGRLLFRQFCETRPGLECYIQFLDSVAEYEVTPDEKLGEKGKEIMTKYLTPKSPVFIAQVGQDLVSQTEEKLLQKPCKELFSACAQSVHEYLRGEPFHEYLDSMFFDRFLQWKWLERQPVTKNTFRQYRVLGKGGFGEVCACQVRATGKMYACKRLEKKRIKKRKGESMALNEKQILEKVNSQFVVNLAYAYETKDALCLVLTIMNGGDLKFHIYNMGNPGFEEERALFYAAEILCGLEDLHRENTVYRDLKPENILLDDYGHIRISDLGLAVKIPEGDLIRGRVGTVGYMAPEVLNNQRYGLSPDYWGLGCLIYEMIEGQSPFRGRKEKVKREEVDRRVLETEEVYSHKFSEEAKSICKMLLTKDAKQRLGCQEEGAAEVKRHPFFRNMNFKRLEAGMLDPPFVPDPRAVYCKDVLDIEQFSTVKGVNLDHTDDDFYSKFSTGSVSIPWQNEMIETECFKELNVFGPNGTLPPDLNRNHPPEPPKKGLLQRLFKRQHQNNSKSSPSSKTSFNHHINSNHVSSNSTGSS
Chain of TEK (human) (Q02763 whole entry, looked up): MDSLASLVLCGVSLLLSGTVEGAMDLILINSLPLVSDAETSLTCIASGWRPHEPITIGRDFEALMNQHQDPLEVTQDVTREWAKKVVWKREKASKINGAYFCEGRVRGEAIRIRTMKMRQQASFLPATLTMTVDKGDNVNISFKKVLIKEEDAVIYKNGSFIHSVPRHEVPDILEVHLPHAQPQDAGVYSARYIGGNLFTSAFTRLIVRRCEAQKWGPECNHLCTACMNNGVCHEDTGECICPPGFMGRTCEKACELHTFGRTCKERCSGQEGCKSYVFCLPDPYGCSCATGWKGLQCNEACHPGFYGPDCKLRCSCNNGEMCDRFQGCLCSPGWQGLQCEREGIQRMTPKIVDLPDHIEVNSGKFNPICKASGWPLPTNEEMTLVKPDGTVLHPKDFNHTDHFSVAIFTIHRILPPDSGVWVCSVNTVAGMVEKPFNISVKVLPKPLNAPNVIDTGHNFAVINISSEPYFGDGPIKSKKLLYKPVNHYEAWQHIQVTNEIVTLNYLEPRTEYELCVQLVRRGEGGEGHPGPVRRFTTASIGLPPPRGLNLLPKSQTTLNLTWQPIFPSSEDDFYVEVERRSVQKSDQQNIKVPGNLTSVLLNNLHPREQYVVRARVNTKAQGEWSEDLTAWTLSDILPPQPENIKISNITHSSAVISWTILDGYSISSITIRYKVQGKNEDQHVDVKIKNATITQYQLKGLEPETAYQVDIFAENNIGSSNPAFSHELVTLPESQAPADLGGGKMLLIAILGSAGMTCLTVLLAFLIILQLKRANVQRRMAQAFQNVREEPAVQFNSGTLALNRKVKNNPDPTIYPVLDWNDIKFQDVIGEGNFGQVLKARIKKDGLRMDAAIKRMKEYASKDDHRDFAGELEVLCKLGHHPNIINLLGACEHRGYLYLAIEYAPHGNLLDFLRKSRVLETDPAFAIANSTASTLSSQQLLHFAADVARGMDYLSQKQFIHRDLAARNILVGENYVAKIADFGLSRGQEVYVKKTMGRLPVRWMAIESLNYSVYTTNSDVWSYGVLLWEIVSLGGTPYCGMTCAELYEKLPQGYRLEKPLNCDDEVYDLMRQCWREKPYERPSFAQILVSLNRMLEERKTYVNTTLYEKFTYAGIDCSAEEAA
Chain of ADRBK2 (human) (P35626 whole entry, looked up): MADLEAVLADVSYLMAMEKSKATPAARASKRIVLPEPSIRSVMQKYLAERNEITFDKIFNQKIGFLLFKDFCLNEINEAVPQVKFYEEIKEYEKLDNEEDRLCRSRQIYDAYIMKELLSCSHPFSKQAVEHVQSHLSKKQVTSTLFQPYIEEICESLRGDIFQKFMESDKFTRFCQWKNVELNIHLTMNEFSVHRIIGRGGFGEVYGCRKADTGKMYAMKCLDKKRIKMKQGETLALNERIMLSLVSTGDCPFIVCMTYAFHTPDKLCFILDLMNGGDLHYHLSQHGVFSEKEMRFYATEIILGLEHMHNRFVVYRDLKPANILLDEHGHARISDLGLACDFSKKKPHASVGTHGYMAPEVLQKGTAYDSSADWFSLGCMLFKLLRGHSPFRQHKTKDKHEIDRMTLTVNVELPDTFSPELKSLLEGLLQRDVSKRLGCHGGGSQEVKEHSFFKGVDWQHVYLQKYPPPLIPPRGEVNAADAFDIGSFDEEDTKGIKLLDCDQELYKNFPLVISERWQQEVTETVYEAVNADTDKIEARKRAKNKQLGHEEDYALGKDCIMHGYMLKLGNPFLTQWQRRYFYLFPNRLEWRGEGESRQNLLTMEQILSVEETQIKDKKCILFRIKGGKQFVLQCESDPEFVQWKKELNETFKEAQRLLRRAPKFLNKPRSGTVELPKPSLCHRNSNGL
Chain of PRKCB2 (human) (P05771 whole entry, looked up): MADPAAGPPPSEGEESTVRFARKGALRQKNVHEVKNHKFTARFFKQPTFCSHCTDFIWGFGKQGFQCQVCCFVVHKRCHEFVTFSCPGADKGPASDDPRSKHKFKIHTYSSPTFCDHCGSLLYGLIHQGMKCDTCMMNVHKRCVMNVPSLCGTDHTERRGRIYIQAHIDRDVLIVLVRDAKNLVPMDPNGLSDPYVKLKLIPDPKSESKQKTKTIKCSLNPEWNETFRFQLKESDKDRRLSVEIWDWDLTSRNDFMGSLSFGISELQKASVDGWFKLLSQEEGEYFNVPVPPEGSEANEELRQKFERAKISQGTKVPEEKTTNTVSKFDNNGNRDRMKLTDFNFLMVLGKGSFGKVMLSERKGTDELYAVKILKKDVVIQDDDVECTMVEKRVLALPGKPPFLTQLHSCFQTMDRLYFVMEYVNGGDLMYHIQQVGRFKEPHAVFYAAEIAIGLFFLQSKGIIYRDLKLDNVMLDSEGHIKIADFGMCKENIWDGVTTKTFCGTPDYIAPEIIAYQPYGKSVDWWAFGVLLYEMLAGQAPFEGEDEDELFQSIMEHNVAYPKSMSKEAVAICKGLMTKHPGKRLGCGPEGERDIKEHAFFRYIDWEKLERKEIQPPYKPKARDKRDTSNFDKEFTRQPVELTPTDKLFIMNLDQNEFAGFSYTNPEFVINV
Chain of MAP3K9 (human) (P80192 whole entry, looked up): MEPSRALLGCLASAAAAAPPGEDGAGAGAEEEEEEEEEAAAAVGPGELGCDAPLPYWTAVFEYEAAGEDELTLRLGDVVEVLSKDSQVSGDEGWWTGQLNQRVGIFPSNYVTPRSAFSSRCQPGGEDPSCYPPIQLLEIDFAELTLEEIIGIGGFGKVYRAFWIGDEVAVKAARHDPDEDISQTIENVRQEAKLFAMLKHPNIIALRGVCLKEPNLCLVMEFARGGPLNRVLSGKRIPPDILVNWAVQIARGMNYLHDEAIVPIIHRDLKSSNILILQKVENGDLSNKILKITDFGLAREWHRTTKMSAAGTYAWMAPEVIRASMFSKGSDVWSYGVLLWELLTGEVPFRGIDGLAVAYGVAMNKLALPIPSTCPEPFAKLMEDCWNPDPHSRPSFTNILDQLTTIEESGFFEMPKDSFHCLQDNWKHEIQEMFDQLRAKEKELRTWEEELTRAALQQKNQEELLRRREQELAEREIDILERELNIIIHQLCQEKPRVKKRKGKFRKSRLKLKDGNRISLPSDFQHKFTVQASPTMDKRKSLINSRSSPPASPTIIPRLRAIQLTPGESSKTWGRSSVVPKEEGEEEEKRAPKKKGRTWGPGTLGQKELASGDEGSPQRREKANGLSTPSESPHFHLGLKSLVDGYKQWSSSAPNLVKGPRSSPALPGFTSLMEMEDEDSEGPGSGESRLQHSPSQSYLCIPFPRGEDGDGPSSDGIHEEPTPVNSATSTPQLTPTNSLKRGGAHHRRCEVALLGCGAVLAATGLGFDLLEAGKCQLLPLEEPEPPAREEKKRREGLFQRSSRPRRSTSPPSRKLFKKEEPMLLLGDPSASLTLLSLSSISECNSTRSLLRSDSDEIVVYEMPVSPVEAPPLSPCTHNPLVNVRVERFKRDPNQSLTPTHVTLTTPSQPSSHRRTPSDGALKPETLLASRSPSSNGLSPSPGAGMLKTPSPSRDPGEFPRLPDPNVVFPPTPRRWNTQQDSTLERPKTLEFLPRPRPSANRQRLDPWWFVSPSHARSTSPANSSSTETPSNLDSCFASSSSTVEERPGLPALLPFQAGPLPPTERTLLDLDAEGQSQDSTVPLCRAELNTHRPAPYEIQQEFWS

Row | Structure (SMILES) | residual activity (TEK (human)) [%] | residual activity (EPHA1 (human)) [%] | residual activity (MAPK13 (human)) [%] | residual activity (MAP4K4 (human)) [%] | residual activity (CAMK2B (human)) [%] | residual activity (DCLK2 (human)) [%] | residual activity (ADRBK2 (human)) [%] | residual activity (STK4 (human)) [%] | residual activity (MAP3K7 TAB1 (human)) [%] | residual activity (ERBB2 (human)) [%] | residual activity (MAP3K9 (human)) [%] | residual activity (MAP3K2 (human)) [%] | residual activity (PRKCB2 (human)) [%] | residual activity (DSTYK (human)) [%] | residual activity (PRKCG (human)) [%] | residual activity (MARK1 (human)) [%] | residual activity (STK39 (human)) [%] | residual activity (PRKD2 (human)) [%] | residual activity (MINK1 (human)) [%] | residual activity (PAK1 (human)) [%] | other results
1 | O=c1cc(N2CCOCC2)oc2c1ccc1ccccc12 | 94.4 | 94.2 | 99.8 | 89.3 | 98.1 | 100 | 102 | 99.5 | 98.3 | 105 | 111 | 109 | 99.9 | 110 | 101 | 99.5 | 95.7 | 101 | 96 | 93.5 | residual activity (MET (human)): 161%; residual activity (NTRK3 (human)): 103%; residual activity (MAP3K11 (human)): 99.2%; residual activity (INSR (human)): 92.3%; residual activity (STK17A (human)): 94.6%; residual activity (CLK2 (human)): 101%; residual activity (NLK (human)): 103%; residual activity (MUSK (human)): 75.6%; residual activity (CDK6 CCND1 (human)): 102%; residual activity (STK11 (human)): 104%; residual activity (SRC (human)): 99.3%; residual activity (GRK5 (human)): 106%; residual activity (WNK2 (human)): 103%; residual activity (NTRK2 (human)): 94%; residual activity (RPS6KA5 KD2 (human)): 103%; residual activity (SRPK2 (human)): 100%; residual activity (DAPK2 (human)): 115%; residual activity (AKT3 (human)): 98.3%; residual activity (LCK (human)): 99.2%; residual activity (MYLK (human)): 92.3%
2 | COc1ccc(COc2ccc(Cc3cnc(N)nc3N)cc2OC)cc1 | 101 | 85.7 | 96 | 99 | 100 | 101 | 103 | 106 | 97.9 | 106 | 105 | 108 | 110 | 95 | 102 | 103 | 87.6 | 99.4 | 86.5 | 93.4 | residual activity (MET (human)): 76.1%; residual activity (MAP3K11 (human)): 101%; residual activity (INSR (human)): 97%; residual activity (STK17A (human)): 102%; residual activity (CLK2 (human)): 94.3%; residual activity (NLK (human)): 105%; residual activity (MUSK (human)): 102%; residual activity (CDK6 CCND1 (human)): 101%; residual activity (STK11 (human)): 103%; residual activity (SRC (human)): 97.9%; residual activity (GRK5 (human)): 109%; residual activity (WNK2 (human)): 94.6%; residual activity (NTRK2 (human)): 31.2%; residual activity (RPS6KA5 KD2 (human)): 103%; residual activity (SRPK2 (human)): 87.4%; residual activity (DAPK2 (human)): 95.3%; residual activity (AKT3 (human)): 96.5%; residual activity (IGF1R (human)): 123%; residual activity (LCK (human)): 96.3%; residual activity (MYLK (human)): 95.7%
3 | COc1ccc2c(c[n+](C)c3c4cc5c(cc4ccc23)OCO5)c1OC | 97.2 | 98.3 | 97.3 | 84.9 | 98.9 | 96 | 88.4 | 98.9 | 100 | 101 | 98.1 | 99.8 | 100 | 86.4 | 87.2 | 91.4 | 90.8 | 90.1 | 97.5 | 98.7 | residual activity (MET (human)): 94.7%; residual activity (NTRK3 (human)): 95.2%; residual activity (MAP3K11 (human)): 95%; residual activity (INSR (human)): 94.9%; residual activity (STK17A (human)): 104%; residual activity (CLK2 (human)): 90.6%; residual activity (NLK (human)): 102%; residual activity (MUSK (human)): 98.2%; residual activity (CDK6 CCND1 (human)): 103%; residual activity (STK11 (human)): 82.1%; residual activity (SRC (human)): 91.5%; residual activity (GRK5 (human)): 110%; residual activity (WNK2 (human)): 98.5%; residual activity (NTRK2 (human)): 104%; residual activity (RPS6KA5 KD2 (human)): 83.3%; residual activity (DAPK2 (human)): 93.9%; residual activity (AKT3 (human)): 103%; residual activity (IGF1R (human)): 93.3%; residual activity (LCK (human)): 89%; residual activity (MYLK (human)): 100%
4 | O=C(Nc1cccc(Nc2nccc(Nc3cccc(C(F)(F)F)c3)n2)c1)C1CC1 | 101 | 81.8 | 99.6 | 92.4 | 102 | 97.4 | 93.1 | 83.1 | 87.4 | 93.8 | 95.2 | 91.6 | 98 | 93.8 | 90.9 | 104 | 94.1 | 101 | 108 | 89.5 | residual activity (MET (human)): 87.7%; residual activity (NTRK3 (human)): 77.3%; residual activity (MAP3K11 (human)): 89.5%; residual activity (INSR (human)): 89.8%; residual activity (STK17A (human)): 97.6%; residual activity (CLK2 (human)): 87.6%; residual activity (NLK (human)): 101%; residual activity (MUSK (human)): 101%; residual activity (CDK6 CCND1 (human)): 93.4%; residual activity (STK11 (human)): 82.8%; residual activity (SRC (human)): 64.5%; residual activity (GRK5 (human)): 104%; residual activity (WNK2 (human)): 122%; residual activity (NTRK2 (human)): 71.6%; residual activity (RPS6KA5 KD2 (human)): 101%; residual activity (SRPK2 (human)): 104%; residual activity (DAPK2 (human)): 120%; residual activity (AKT3 (human)): 108%; residual activity (IGF1R (human)): 95.7%; residual activity (MYLK (human)): 90%
5 | O=S(=O)(c1cccc2cnccc12)N1CCCNCC1 | 98.4 | 79.9 | 98.8 | 44.1 | 93.2 | 83.9 | 100 | 94.8 | 106 | 108 | 94.4 | 77.8 | 101 | 90.4 | 110 | 98.6 | 103 | 85 | 96.6 | 94.6 | residual activity (NTRK3 (human)): 85.5%; residual activity (MAP3K11 (human)): 99.7%; residual activity (INSR (human)): 95%; residual activity (STK17A (human)): 98.2%; residual activity (CLK2 (human)): 95.1%; residual activity (NLK (human)): 97.3%; residual activity (MUSK (human)): 97.6%; residual activity (CDK6 CCND1 (human)): 86.4%; residual activity (STK11 (human)): 97.6%; residual activity (SRC (human)): 85.3%; residual activity (GRK5 (human)): 109%; residual activity (WNK2 (human)): 99.3%; residual activity (NTRK2 (human)): 102%; residual activity (RPS6KA5 KD2 (human)): 62.1%; residual activity (SRPK2 (human)): 83.9%; residual activity (DAPK2 (human)): 83.6%; residual activity (AKT3 (human)): 94.1%; residual activity (IGF1R (human)): 112%; residual activity (LCK (human)): 101%; residual activity (MYLK (human)): 97.4%
